From US10053468B2, “Heterocyclic compound” (TAKEDA PHARMACEUTICAL COMPANY LIMITED, priority 2013, dated 2018)
Read-outs that look alike come from different tables or passages of the source.

Experiments:
IL-17A gene expression = assay: Effect on IL-23-induced cytokine expression in mice; assay type: in vivo, Balb/c mice; conditions: Mus musculus, 30 min before and 8 hr after IL-23, versus the negative control group, read-out: Percent inhibition of IL-17A gene expression; for inhibition in vivo at 30 mg/kg: dose 30 mg/kg oral; for inhibition in vivo at 10 mg/kg: dose 10 mg/kg oral
Procedure: Effect on IL-23-induced Cytokine Expression in Mice
A mouse IL-23 solution (500 ng/10 μL, prepared by Takeda Pharmaceutical Company Limited) or PBS (10 μL, negative control group) was administered intradermally in the ear of Balb/c mice (Charles River Japan, male, 7 weeks old). Twenty-four hr after administration, the ear was resected under isoflurane anesthesia. The test compound was suspended in 0.5% methylcellulose and administered orally 30 min before and 8 hr after IL-23 administration.
RNA extraction from the ear tissue and quantitative PCR were performed as follows. Specifically, ear tissue 5 mm in diameter was punched from an area of the resected ear centering on the IL-23 injection site, and the tissue was immersed in RNAlater (QIAGEN) for at least 18 hr. The RNAlater-treated ear tissue was homogenized in 350 μL of RLT buffer (RNeasy mini kit, QIAGEN) and treated (55° C., 10 min) with Proteinase K (QIAGEN). Total RNA was then extracted according to the RNeasy mini kit protocol. The RNA thus obtained was then reverse transcribed into cDNA using the High-Capacity RNA-to-cDNA kit (Applied Biosystems), and the amount of each cytokine expressions was measured by real-time PCR (Viia7™, Applied Biosystems). The PCR buffer used was TaqMan Fast Advanced Master Mix (Applied Biosystems), and TaqMan Gene Expression Assays (Applied Biosystems) Mm00439618 ml (IL-17A) and 4352341E (β-actin) were used for cytokine gene detection. The IL-17A gene expression level was normalized to the R-actin gene expression level, and the percent inhibition of IL-17A gene expression with the test compound was then calculated.
The results obtained with the above-described method (percent inhibition of IL-17A gene expression with oral administration of the test compound) are shown in Table 5.

RORγt [1] = target: T1, RORγt (Homo sapiens, UniProt P51449); assay: Cofactor recruitment test (Alpha Screen, biotinylated SRC-1 peptide); assay type: biochemical; conditions: read-out: Signal value inhibitory rate at test compound 1 μM (%)
T1 sequence (P51449 1-497 isoform P51449-2): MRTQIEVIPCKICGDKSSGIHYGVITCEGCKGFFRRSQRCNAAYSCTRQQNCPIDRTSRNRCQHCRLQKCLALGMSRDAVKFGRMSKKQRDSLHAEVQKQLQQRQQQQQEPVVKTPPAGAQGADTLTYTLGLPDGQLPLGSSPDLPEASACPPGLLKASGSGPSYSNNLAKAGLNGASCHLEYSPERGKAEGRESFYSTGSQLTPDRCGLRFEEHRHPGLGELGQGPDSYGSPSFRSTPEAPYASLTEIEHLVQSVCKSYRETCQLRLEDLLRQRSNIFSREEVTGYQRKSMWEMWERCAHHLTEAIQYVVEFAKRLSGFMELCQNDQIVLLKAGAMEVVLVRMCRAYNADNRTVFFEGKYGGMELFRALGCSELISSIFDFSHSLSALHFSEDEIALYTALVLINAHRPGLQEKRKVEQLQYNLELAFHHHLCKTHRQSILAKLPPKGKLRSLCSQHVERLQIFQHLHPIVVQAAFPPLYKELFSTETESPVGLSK
Procedure: Cofactor Recruitment Test
Cofactor recruitment test was performed by Alpha Screen (Histidine Detection Kit, PerkinElmer) method. First, a test compound was diluted with an assay buffer (50 mM Tris-HCl (pH 7.5), 50 mM KCl, 1 mM DTT, 0.1% BSA) and added to a 384 well plate by 5 μL. […] The mixture was stood in a dark place for 1 hr, and the signal value was measured by Envision (PerkinElmer).

RORγt [2] = target: T1, RORγt; assay: Jurkat reporter test (human IL-17 ROR response element luciferase, RORγt vector); assay type: cell-based; conditions: read-out: Luminescence level inhibitory rate at test compound 3 μM (%)
Method in brief: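 Jurkat cells were electroporated (1350 V, 10 ms, 3 pulses) with reporter constructs, then cultured overnight with compound in RPMI containing 10% lipid-reduced FCS, 10 mM HEPES pH 7.5 and 5 μM lovastatin. Luciferase was quantified by Bright-Glo luminescence after 10 min at room temperature.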

RORγt [3] = target: T1, RORγt; assay: RORγt binding test using fluorescent-labeled cholesterol (TR-FRET); conditions: read-out: Binding inhibitory rate of fluorescent-labeled cholesterol to RORγt at test compound 1 μM (%)
Method in brief: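 TR-FRET displacement with His-tagged RORγt, BODIPY-cholesterol and Tb-anti-His antibody in Tris-HCl pH 7.5, 100 mM NaCl, 1 mM DTT, 0.1% BSA. Compound, RORγt and labelled cholesterol were incubated 20 min at RT, then antibody was added for another 20 min.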

RORγt [4] = target: T1, RORγt; assay: RORγt binding test using fluorescent-labeled synthetic ligand (TR-FRET); conditions: read-out: Binding inhibitory rate of fluorescent-labeled synthetic ligand to RORγt at test compound 1 μM (%)
Method in brief: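 His-tagged RORγt (diluted to 240 nM) with compound, then fluorescent synthetic ligand (diluted to 12 μM), 20 min at room temperature, followed by Tb anti-His antibody (diluted to 8 nM), 20 min.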

[5] = test compound 3 μM, Jurkat cells

Compound	inhibition in vivo at 30 mg/kg (IL-17A gene expression) [%]	inhibition at 1 µM (RORγt [1]) [%]	inhibition at 3 µM (RORγt [2]; Jurkat) [%]	inhibition at 1 µM (RORγt [3]) [%]	inhibition at 1 µM (RORγt [4]) [%]	inhibition in vivo at 10 mg/kg (IL-17A gene expression) [%]	inhibition at 3 µM (RORγt [2]; [5]) [%]
COc1ccc2c(c1)CCN(C(=O)CCCC(=O)O)[C@H]2C(=O)Nc1cc(F)c(C(C)(C)C)c(F)c1 [Example 109, 5-((1R)-1-((4-tert-butyl-3,5-difluorophenyl)carbamoyl)-6-methoxy-3,4-dihydroisoquinolin-2(1H)-yl)-5-oxopentanoic acid]	96	–	–	–	–	–	–
COc1ccc2c(n1)CCN(C(=O)CCCC(=O)O)[C@H]2C(=O)Nc1cc(F)c([Si](C)(C)C)c(F)c1 [Example 125, 5-((5R)-5-((3,5-difluoro-4-(trimethylsilyl)phenyl)carbamoyl)-2-methoxy-7,8-dihydro-1,6-naphthyridin-6(5H)-yl)-5-oxopentanoic acid]	89	–	–	–	–	–	–
COc1ccc2c(c1)CCN(C(=O)CCCC(=O)O)[C@H]2C(=O)Nc1ccc([Si](C)(C)C)c(F)c1 [Example 135, 5-((1R)-1-((3-fluoro-4-(trimethylsilyl)phenyl)carbamoyl)-6-methoxy-3,4-dihydroisoquinolin-2(1H)-yl)-5-oxopentanoic acid]	68	97	104	102	101	–	–
COc1ccc2c(n1)CCN(C(=O)N1CC(CC(=O)O)C1)[C@H]2C(=O)Nc1cc(F)c([Si](C)(C)C)c(F)c1 [Example 281, (1-(((5R)-5-((3,5-difluoro-4-(trimethylsilyl)phenyl)carbamoyl)-2-methoxy-7,8-dihydro-1,6-naphthyridin-6(5H)-yl)carbonyl)azetidin-3-yl)acetic acid]	–	89	102	–	102	93	–
COc1ccc2c(c1)CCN(C(=O)N1CC(CC(=O)O)C1)[C@H]2C(=O)Nc1ccc([Si](C)(C)C)c(F)c1 [Example 279, (1-(((1R)-1-((3-fluoro-4-(trimethylsilyl)phenyl)carbamoyl)-6-methoxy-3,4-dihydroisoquinolin-2(1H)-yl)carbonyl)azetidin-3-yl)acetic acid]	–	89	100	–	102	71	–
COc1ccc2c(c1)CCN(C(=O)CCCC(=O)O)[C@H]2C(=O)Nc1cc(F)c2c(c1)CCC2(C)C [Example 176, 5-((1R)-1-((7-fluoro-1,1-dimethyl-2,3-dihydro-1H-inden-5-yl)carbamoyl)-6-methoxy-3,4-dihydroisoquinolin-2 (1H)-yl)-5-oxopentanoic acid]	91	–	–	–	–	–	–
CC[Si](C)(C)c1c(F)cc(NC(=O)[C@H]2c3ccc(OC)cc3CCN2C(=O)CCCC(=O)O)cc1F [Example 86, 5-((1R)-1-((4-(ethyl(dimethyl)silyl)-3,5-difluorophenyl)carbamoyl)-6-methoxy-3,4-dihydroisoquinolin-2(1H)-yl)-5-oxopentanoic acid]	–	98	101	103	102	–	–
CCOCC(C)(C)c1c(F)cc(NC(=O)[C@H]2c3ccc(OCC)cc3CCN2C(=O)c2cc(O)no2)cc1F [Example 167, (1R)-6-ethoxy-N-(4-(1-ethoxy-2-methylpropan-2-yl)-3,5-difluorophenyl)-2-((3-hydroxy-1,2-oxazol-5-yl)carbonyl)-1,2,3,4-tetrahydroisoquinoline-1-carboxamide]	–	85	–	101	102	–	97
CCOCC(C)(C)c1c(F)cc(NC(=O)[C@H]2c3ccc(OC)cc3CCN2C(=O)c2cc(O)no2)cc1F [Example 171, (1R)-N-(4-(1-ethoxy-2-methylpropan-2-yl)-3,5-difluorophenyl)-2-((3-hydroxy-1,2-oxazol-5-yl)carbonyl)-6-methoxy-1,2,3,4-tetrahydroisoquinoline-1-carboxamide]	–	82	–	100	101	–	96
CCOCC(C)(C)c1c(F)cc(NC(=O)[C@H]2c3ccc(OCC)cc3CCN2C(=O)CCCC(=O)O)cc1F [Example 166, 5-((1R)-6-ethoxy-1-((4-(1-ethoxy-2-methylpropan-2-yl)-3,5-difluorophenyl)carbamoyl)-3,4-dihydroisoquinolin-2(1H)-yl)-5-oxopentanoic acid]	–	86	–	100	102	–	99
CCOc1ccc2c(c1)CCN(C(=O)c1cc(O)no1)[C@H]2C(=O)Nc1cc(F)c(C(C)(C)COCC(F)F)c(F)c1 [Example 154, (1R)-N-(4-(1-(2,2-difluoroethoxy)-2-methylpropan-2-yl)-3,5-difluorophenyl)-6-ethoxy-2-((3-hydroxy-1,2-oxazol-5-yl)carbonyl)-1,2,3,4-tetrahydroisoquinoline-1-carboxamide]	–	85	–	101	102	–	98
COc1ccc2c(n1)CCN(C(=O)Cc1cc(O)no1)[C@H]2C(=O)Nc1cc(F)c2c(c1)CCC2(C)C [Example 117, (5R)-N-(7-fluoro-1,1-dimethyl-2,3-dihydro-1H-inden-5-yl)-6-((3-hydroxy-1,2-oxazol-5-yl)acetyl)-2-methoxy-5,6,7,8-tetrahydro-1,6-naphthyridine-5-carboxamide]	–	87	–	102	102	–	101
COCc1ccc2c(n1)CCN(C(=O)Cc1cc(O)no1)[C@H]2C(=O)Nc1cc(F)c([Si](C)(C)C)c(F)c1 [Example 138, (5R)-N-(3,5-difluoro-4-(trimethylsilyl)phenyl)-6-((3-hydroxy-1,2-oxazol-5-yl)acetyl)-2-(methoxymethyl)-5,6,7,8-tetrahydro-1,6-naphthyridine-5-carboxamide]	–	100	104	102	101	–	–
COc1ccc2c(n1)CCN(C(=O)c1cc(O)no1)[C@H]2C(=O)Nc1ccc([Si](C)(C)C)c(F)c1 [Example 79, (5R)-N-(3-fluoro-4-(trimethylsilyl)phenyl)-6-((3-hydroxy-1,2-oxazol-5-yl)carbonyl)-2-methoxy-5,6,7,8-tetrahydro-1,6-naphthyridine-5-carboxamide]	–	97	102	102	102	–	–
